Laboratory results reported in ChEMBL document CHEMBL1148857, “In vitro and in vivo profile of 5-[(4'-trifluoromethyl-biphenyl-2-carbonyl)-amino]-1H-indole-2-carboxylic acid benzylmethyl carbamoylamide (dirlotapide), a novel potent MTP inhibitor for obesity” (Bioorg Med Chem Lett, 2007).
Active and inactive are the calls of the source. The rule behind the calls is not given here.

Columns and labels:
[1] = Volume of distribution at steady state in rat at 0.3 mg/kg, iv; type: ADME, organism-based; design: dose 0.3 mg/kg, route intravenous; settings: in vivo, read-out: Vdss
[2] = AUC (0 to t) in monkey at 0.5 mg/kg, iv; type: ADME, organism-based, Macaca mulatta; design: dose 0.5 mg/kg, route intravenous; settings: rhesus monkey, plasma
[3] = species on record: Homo sapiens; assay: Inhibition of central benzodiazepine receptor at 1 uM
[4] = biological target: B1 bradykinin receptor (Homo sapiens) (UniProt P46663); assay: Inhibition of bradykinin B1 receptor at 1 uM
Chain of B1 bradykinin receptor (Homo sapiens) (P46663 whole entry): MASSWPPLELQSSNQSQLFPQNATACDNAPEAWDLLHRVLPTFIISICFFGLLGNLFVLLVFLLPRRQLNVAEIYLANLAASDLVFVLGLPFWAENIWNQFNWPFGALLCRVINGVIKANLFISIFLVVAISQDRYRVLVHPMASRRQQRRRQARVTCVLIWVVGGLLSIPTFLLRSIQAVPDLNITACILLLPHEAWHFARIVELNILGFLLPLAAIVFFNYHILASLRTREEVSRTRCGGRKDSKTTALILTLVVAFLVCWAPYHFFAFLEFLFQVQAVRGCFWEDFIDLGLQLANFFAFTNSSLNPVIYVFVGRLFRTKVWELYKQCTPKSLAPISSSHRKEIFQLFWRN

[5] = Cmax in rat at 300 mg/kg, po; type: ADME, organism-based; design: dose 300 mg/kg, route oral; settings: in vivo
[6] = Intrinsic clearance in human microsomes; type: ADME, Microsome
[7] = biological target: 5-hydroxytryptamine receptor 2A (Homo sapiens) (UniProt P28223); assay: Inhibition of 5HT2A receptor at 1 uM
Chain of 5-hydroxytryptamine receptor 2A (Homo sapiens) (P28223 whole entry): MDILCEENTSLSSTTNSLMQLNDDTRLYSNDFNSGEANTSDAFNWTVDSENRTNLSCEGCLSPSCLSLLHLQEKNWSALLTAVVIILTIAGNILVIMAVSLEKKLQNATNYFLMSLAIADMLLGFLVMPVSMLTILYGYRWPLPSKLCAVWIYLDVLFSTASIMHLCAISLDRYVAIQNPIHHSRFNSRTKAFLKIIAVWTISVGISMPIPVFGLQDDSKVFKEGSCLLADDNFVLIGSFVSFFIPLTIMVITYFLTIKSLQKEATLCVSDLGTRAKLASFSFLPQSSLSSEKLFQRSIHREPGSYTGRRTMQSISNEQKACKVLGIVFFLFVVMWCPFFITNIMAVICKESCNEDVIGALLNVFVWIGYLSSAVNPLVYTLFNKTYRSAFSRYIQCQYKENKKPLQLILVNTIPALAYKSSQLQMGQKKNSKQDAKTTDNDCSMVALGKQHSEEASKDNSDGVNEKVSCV

[8] = biological target: Type-1 angiotensin II receptor (Homo sapiens) (UniProt P30556); assay: Inhibition of AT1 receptor at 1 uM
Chain of Type-1 angiotensin II receptor (Homo sapiens) (P30556 whole entry): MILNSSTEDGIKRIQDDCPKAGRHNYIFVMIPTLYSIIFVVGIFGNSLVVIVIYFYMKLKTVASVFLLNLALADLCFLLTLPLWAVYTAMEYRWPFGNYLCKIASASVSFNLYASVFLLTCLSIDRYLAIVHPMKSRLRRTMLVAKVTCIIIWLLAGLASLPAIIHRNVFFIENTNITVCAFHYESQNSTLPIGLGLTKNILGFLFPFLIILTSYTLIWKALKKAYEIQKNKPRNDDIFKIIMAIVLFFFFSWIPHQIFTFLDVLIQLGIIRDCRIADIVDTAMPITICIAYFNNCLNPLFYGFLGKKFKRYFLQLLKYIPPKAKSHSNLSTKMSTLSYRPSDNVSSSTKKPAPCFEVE

[9] = Volume of distribution at steady state in Beagle dog at 1 mg/kg, iv; type: ADME, organism-based, Canis lupus familiaris; design: dose 1 mg/kg, route intravenous; settings: in vivo, read-out: Vdss
[10] = AUC (0 to infinity) in monkey at 0.5 mg/kg, iv; type: ADME, organism-based, Macaca mulatta; design: time infinity, dose 0.5 mg/kg, route intravenous; settings: rhesus monkey, plasma
[11] = tested on: CYP1A2; assay: Metabolic stability in human liver microsome at 0.5 uM in presence of 5 uM CYP1A2 inhibitor furafylline; type: ADME; settings: liver microsomes, with 5 uM furafylline (CYP1A2 inhibitor)
[12] = tested on: Canis familiaris; assay: Decrease in cholesterol level in obese Beagle dog at 0.39 mg/kg, po after 3 months; type: functional, Canis lupus familiaris; design: scale not given: the % may be the effect or the level left
[13] = Tmax in rat at 30 mg/kg, po; type: ADME, organism-based; design: dose 30 mg/kg, route oral; settings: in vivo
[14] = Volume of distribution at steady state in monkey at 0.5 mg/kg, iv; type: ADME, organism-based, Macaca mulatta; design: dose 0.5 mg/kg, route intravenous; settings: rhesus monkey, in vivo, read-out: Vdss
[15] = tested on: Canis familiaris; assay: Increase in fecal fat in obese Beagle dog at 0.39 mg/kg, po after 3 months; type: functional, Canis lupus familiaris, Feces
[16] = species on record: Mus musculus; assay: Inhibition of hepatic MTP in mouse assessed as reduction of triglyceride; type: functional
[17] = Bioavailability in rat at 300 mg/kg, po; type: ADME, organism-based; settings: in vivo
[18] = Half life in rat at 5 mg/kg, iv; type: ADME, organism-based; design: dose 5 mg/kg, route intravenous; settings: in vivo
[19] = tested on: CYP2C19; assay: Metabolic stability in human liver microsome at 0.5 uM in presence of 200 uM CYP2C19 inhibitor (S)-mephenytoin; type: ADME; settings: liver microsomes, with 200 uM (S)-mephenytoin (CYP2C19 inhibitor)
[20] = AUC (0 to infinity) in portal cannulated Beagle dog at 1 mg/kg, iv; type: ADME, organism-based, Canis lupus familiaris; design: time infinity, dose 1 mg/kg, route intravenous; settings: plasma
[21] = species on record: Homo sapiens; assay: Inhibition of IKr potassium channel at 1 uM
[22] = biological target: Voltage-gated L-type calcium channel (Homo sapiens, UniProt Q13936+Q13698+Q01668+O60840); assay: Inhibition of L-type calcium channel at 1 uM
[23] = biological target: Cytochrome P450 2C19 (Homo sapiens, UniProt P33261); assay: Inhibition of CYP2C19; type: ADME
Chain of Cytochrome P450 2C19 (P33261 whole entry): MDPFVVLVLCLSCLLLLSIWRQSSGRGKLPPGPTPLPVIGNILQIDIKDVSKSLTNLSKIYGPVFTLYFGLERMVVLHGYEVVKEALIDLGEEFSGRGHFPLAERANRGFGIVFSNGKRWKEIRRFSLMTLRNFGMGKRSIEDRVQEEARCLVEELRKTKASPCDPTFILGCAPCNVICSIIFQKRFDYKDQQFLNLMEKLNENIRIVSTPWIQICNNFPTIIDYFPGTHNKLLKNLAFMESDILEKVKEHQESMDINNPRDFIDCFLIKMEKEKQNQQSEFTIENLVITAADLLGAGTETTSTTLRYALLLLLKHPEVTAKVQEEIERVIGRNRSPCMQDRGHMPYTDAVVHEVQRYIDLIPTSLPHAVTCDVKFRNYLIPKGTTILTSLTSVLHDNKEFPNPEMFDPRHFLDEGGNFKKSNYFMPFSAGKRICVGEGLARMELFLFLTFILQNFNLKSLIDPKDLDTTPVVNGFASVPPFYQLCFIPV

[24] = AUC (0 to infinity) in Beagle dog at 5 mg/kg, po; type: ADME, organism-based, Canis lupus familiaris; design: time infinity, dose 5 mg/kg, route oral; settings: plasma
[25] = Plasma clearance in rat at 5 mg/kg, iv; type: ADME, organism-based; design: dose 5 mg/kg, route intravenous
[26] = Permeability from apical to basolateral side of the Caco-2 cell membrane at 1 uM; type: ADME, cell-based; settings: human
[27] = species on record: Mus musculus; assay: Inhibition of intestinal MTP in mouse assessed as inhibition of intestinal fat absorption; type: functional
[28] = species on record: Homo sapiens; assay: Inhibition of GABA receptor at 1 uM
[29] = biological target: D(1A) dopamine receptor (Homo sapiens) (UniProt P21728); assay: Inhibition of dopamine D1 receptor at 1 uM
[30] = Plasma clearance in Beagle dog at 0.5 mg/kg, iv; type: ADME, organism-based, Canis lupus familiaris; design: dose 0.5 mg/kg, route intravenous
[31] = biological target: B2 bradykinin receptor (Homo sapiens) (UniProt P30411); assay: Inhibition of bradykinin B2 receptor at 1 uM
Chain of B2 bradykinin receptor (Homo sapiens) (P30411 whole entry): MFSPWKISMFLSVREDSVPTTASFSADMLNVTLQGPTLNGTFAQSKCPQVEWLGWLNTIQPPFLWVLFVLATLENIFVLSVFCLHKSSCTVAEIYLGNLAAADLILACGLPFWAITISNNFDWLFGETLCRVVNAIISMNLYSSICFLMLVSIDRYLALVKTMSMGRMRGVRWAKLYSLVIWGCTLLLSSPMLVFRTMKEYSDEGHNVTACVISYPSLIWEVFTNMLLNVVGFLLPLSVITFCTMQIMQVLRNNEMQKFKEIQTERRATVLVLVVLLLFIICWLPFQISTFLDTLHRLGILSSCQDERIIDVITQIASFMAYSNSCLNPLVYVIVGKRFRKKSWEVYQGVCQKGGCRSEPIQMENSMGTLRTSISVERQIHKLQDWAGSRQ

[32] = biological target: 5-hydroxytryptamine receptor 2C (Homo sapiens) (UniProt P28335); assay: Inhibition of 5HT2C receptor at 1 uM
Chain of 5-hydroxytryptamine receptor 2C (Homo sapiens) (P28335 whole entry): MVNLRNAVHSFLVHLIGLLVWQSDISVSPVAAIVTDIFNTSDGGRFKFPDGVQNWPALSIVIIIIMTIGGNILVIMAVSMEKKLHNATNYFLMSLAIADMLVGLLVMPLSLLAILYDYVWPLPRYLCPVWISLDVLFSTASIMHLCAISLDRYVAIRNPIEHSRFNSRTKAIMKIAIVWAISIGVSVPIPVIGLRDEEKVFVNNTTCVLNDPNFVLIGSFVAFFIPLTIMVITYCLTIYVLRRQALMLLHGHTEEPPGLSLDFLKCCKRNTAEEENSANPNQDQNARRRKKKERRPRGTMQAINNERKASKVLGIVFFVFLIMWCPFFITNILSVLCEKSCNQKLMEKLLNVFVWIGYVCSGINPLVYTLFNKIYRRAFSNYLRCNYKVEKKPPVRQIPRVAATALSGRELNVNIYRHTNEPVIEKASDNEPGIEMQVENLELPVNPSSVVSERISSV

[33] = AUC (0 to infinity) in Beagle dog at 1 mg/kg, iv; type: ADME, organism-based, Canis lupus familiaris; design: time infinity, dose 1 mg/kg, route intravenous; settings: plasma
[34] = biological target: D(4) dopamine receptor (Homo sapiens) (UniProt P21917); assay: Inhibition of dopamine D4 receptor at 1 uM
Chain of D(4) dopamine receptor (Homo sapiens) (P21917 whole entry): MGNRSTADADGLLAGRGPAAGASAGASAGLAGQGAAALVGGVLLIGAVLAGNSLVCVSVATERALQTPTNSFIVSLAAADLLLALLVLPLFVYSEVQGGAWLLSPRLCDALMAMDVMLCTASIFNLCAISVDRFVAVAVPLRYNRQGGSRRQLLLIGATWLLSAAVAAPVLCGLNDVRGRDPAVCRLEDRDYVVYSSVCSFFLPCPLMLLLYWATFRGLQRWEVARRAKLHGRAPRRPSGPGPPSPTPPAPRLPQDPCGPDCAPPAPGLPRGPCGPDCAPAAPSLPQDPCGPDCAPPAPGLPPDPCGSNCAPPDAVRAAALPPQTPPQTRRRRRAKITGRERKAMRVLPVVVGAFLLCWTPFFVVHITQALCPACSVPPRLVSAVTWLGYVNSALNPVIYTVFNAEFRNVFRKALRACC

[35] = Bioavailability in Beagle dog at 0.5 mg/kg, po; type: ADME, organism-based, Canis lupus familiaris; settings: in vivo
[36] = Tmax in Beagle dog at 5 mg/kg, po; type: ADME, organism-based, Canis lupus familiaris; design: dose 5 mg/kg, route oral; settings: in vivo
[37] = Metabolic stability in human liver microsome at 0.5 uM; type: ADME; settings: liver microsomes
[38] = Bioavailability in rat at 30 mg/kg, po; type: ADME, organism-based; settings: in vivo
[39] = tested on: Plasma; assay: Percentage unbound ligand in human blood at 0.2 uM; type: ADME, cell-free
[40] = biological target: Beta-2 adrenergic receptor (Homo sapiens) (UniProt P07550); assay: Inhibition of adrenergic b2 receptor at 1 uM
[41] = AUC (0 to t) in Beagle dog at 1 mg/kg, iv; type: ADME, organism-based, Canis lupus familiaris; design: dose 1 mg/kg, route intravenous; settings: plasma
[42] = tested on: CYP2D6; assay: Metabolic stability in human liver microsome at 0.5 uM in presence of 5 uM CYP2D6 inhibitor quinidine; type: ADME; settings: liver microsomes, with 5 uM quinidine (CYP2D6 inhibitor)
[43] = Tmax in rat at 300 mg/kg, po; type: ADME, organism-based; design: dose 300 mg/kg, route oral; settings: in vivo
[44] = biological target: Mu-type opioid receptor (Homo sapiens) (UniProt P35372); assay: Inhibition of mu opioid receptor at 1 uM
[45] = tested on: Plasma; assay: Percentage unbound ligand in dog blood at 0.2 uM; type: ADME, cell-free, Canis lupus familiaris
[46] = biological target: Histamine H1 receptor (Homo sapiens) (UniProt P35367); assay: Inhibition of histamine H1 receptor at 1 uM
Chain of Histamine H1 receptor (Homo sapiens) (P35367 whole entry): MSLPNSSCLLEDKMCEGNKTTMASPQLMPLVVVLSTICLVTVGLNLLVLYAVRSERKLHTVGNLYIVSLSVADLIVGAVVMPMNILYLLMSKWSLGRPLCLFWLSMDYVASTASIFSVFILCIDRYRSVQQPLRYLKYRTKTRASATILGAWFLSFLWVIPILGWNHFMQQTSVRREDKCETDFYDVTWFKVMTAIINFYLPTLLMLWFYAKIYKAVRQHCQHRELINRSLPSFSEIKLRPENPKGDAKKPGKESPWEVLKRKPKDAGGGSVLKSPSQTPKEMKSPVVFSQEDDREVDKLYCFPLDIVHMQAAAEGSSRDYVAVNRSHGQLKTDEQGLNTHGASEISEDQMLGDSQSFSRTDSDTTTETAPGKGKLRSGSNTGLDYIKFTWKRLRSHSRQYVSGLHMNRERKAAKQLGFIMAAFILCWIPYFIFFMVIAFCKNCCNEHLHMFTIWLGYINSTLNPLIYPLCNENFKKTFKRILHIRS

[47] = tested on: Plasma; assay: Percentage unbound ligand in monkey blood at 0.2 uM; type: ADME, cell-free, Macaca mulatta; settings: rhesus monkey
[48] = Plasma clearance in portal cannulated Beagle dog at 1 mg/kg, iv; type: ADME, organism-based, Canis lupus familiaris; design: dose 1 mg/kg, route intravenous
[49] = biological target: Adenosine receptor A3 (Homo sapiens) (UniProt P0DMS8); assay: Inhibition of adenosine A3 receptor at 1 uM
Chain of Adenosine receptor A3 (Homo sapiens) (P0DMS8 whole entry): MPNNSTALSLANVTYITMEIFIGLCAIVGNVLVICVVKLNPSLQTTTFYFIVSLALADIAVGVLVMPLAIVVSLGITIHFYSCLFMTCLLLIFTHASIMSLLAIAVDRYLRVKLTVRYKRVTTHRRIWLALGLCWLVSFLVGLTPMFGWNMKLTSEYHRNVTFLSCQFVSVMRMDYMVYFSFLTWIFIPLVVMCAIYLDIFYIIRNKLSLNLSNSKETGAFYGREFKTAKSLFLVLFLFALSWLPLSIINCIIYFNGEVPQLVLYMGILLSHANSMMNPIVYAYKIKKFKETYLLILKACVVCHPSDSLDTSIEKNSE

[50] = Half life in monkey at 0.5 mg/kg, iv; type: ADME, organism-based, Macaca mulatta; design: dose 0.5 mg/kg, route intravenous; settings: rhesus monkey, in vivo
[51] = Half life in rat at 3 mg/kg, po; type: ADME, organism-based; design: dose 3 mg/kg, route oral; settings: in vivo
[52] = Tmax in Beagle dog at 0.5 mg/kg, po; type: ADME, organism-based, Canis lupus familiaris; design: dose 0.5 mg/kg, route oral; settings: in vivo
[53] = biological target: Glucocorticoid receptor (Homo sapiens) (UniProt P04150); assay: Inhibition of glucocorticoid receptor at 1 uM
Chain of Glucocorticoid receptor (Homo sapiens) (P04150 whole entry): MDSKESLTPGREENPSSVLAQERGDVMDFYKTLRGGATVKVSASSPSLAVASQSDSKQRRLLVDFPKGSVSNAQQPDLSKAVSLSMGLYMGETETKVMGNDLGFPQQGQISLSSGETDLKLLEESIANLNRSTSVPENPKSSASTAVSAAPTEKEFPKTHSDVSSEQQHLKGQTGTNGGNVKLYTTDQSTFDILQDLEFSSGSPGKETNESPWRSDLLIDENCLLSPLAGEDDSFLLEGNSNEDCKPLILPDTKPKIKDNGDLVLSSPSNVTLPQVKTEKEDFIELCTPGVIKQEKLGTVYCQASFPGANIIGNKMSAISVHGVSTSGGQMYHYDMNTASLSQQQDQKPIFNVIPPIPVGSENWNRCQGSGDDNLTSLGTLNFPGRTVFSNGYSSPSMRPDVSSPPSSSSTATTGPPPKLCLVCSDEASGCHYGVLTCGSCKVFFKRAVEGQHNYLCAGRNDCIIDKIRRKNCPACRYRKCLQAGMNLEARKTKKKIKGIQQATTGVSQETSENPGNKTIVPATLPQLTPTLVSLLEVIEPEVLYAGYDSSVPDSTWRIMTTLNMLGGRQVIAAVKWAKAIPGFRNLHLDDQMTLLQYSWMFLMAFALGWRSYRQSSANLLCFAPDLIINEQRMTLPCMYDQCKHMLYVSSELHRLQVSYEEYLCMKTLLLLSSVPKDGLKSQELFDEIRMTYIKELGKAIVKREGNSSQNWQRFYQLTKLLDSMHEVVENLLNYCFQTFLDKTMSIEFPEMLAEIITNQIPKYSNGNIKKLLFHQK

[54] = biological target: Type-2 angiotensin II receptor (Homo sapiens) (UniProt P50052); assay: Inhibition of AT2 receptor at 1 uM
[55] = tested on: CYP3A4; assay: Metabolic stability in human liver microsome at 0.5 uM in presence of 1 uM CYP3A4 inhibitor ketoconazole; type: ADME; settings: liver microsomes, with 1 uM ketoconazole (CYP3A4 inhibitor)
[56] = Bioavailability in rat at 3 mg/kg, po; type: ADME, organism-based; settings: in vivo
[57] = biological target: 5-hydroxytryptamine receptor 4 (Homo sapiens) (UniProt Q13639); assay: Inhibition of 5HT4 receptor at 1 uM
[58] = biological target: D(3) dopamine receptor (Homo sapiens) (UniProt P35462); assay: Inhibition of dopamine D3 receptor at 1 uM
Chain of D(3) dopamine receptor (Homo sapiens) (P35462 whole entry): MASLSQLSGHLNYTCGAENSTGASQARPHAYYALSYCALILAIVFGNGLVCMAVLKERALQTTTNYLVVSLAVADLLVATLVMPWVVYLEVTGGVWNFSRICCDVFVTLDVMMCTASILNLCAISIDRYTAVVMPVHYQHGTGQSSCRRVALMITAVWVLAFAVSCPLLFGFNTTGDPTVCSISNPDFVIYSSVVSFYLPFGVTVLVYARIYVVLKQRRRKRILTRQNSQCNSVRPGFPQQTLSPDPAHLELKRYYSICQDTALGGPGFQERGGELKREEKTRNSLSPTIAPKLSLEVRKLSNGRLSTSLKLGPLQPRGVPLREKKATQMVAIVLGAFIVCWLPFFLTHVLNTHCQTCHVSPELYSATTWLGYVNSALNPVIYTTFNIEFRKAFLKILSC

[59] = Permeability from basolateral to apical side of the Caco-2 cell membrane at 1 uM in presence of calcium; type: ADME, cell-based; settings: human

CN(Cc1ccccc1)C(=O)[C@@H](NC(=O)c1cc2cc(NC(=O)c3ccccc3-c3ccc(C(F)(F)F)cc3)ccc2n1C)c1ccccc1 [DIRLOTAPIDE]
Vd [1]: 11 L/kg | AUC(0-t) [2]: 684 ng·h/mL | Activity [3]: inactive | Activity [4]: inactive | Cmax [5]: 27 ng/mL | CLint scaled [6]: 91 mL/min/kg | Activity [7]: inactive | Activity [8]: inactive | Vd [9]: 1 L/kg | AUC(0-inf) [10]: 703 ng·h/mL | half-life at 0.5 µM [11]: 0.75 h | Activity [12]: 51% | Tmax [13]: 2.8 h | Vd [14]: 2.2 L/kg | Activity [15]: 1.86% | ED25 [16]: 6 mg/kg | bioavailability [17]: 1% | half-life [18]: 11.3 h | half-life at 0.5 µM [19]: 1.17 h | AUC(0-inf) [20]: 2820 ng·h/mL | Activity [21]: inactive | Activity [22]: Not Active | IC50 [23]: > 30 µM | AUC(0-inf) [24]: 1930 ng·h/mL | clearance [25]: 14 mL/min/kg | Papp A→B at 1 µM [26]: 0.9 ×10⁻⁶ cm/s | ED25 [27]: 0.16 mg/kg | Activity [28]: inactive | Activity [29]: inactive | clearance [30]: 5.5 mL/min/kg | Activity [31]: inactive | Activity [32]: inactive | AUC(0-inf) [33]: 3610 ng·h/mL | Activity [34]: inactive | bioavailability [35]: 43% | Tmax [36]: 3 h | half-life at 0.5 µM [37]: 0.8 h | bioavailability [38]: 2.3% | Fu [39]: 0.0097% | Activity [40]: inactive | AUC(0-t) [41]: 3260 ng·h/mL | half-life at 0.5 µM [42]: 0.6 h | Tmax [43]: 6 h | Activity [44]: inactive | Fu [45]: 0.0088% | Activity [46]: inactive | Fu [47]: 0.026% | clearance [48]: 7.6 mL/min/kg | Activity [49]: inactive | half-life [50]: 6.7 h | half-life [51]: 6.3 h | Tmax [52]: 3 h | Activity [53]: inactive | Activity [54]: inactive | half-life at 0.5 µM [55]: 6.15 h | bioavailability [56]: 2.6% | Activity [57]: inactive | Activity [58]: inactive | Papp B→A at 1 µM [59]: 0.4 ×10⁻⁶ cm/s
